Reference: patent publication US11952346B2, “Modulators of mas-related G-protein receptor X2 and related products and methods” (Escient Pharmaceuticals, Inc., priority 2020, dated 2024)
Read-outs that look alike come from different tables or passages of the source.

Target: T1, human MRGPRX2 (Homo sapiens, UniProt Q96LB1)
T1 construct: expressed in transfected cells
T1 sequence (Q96LB1 1-330): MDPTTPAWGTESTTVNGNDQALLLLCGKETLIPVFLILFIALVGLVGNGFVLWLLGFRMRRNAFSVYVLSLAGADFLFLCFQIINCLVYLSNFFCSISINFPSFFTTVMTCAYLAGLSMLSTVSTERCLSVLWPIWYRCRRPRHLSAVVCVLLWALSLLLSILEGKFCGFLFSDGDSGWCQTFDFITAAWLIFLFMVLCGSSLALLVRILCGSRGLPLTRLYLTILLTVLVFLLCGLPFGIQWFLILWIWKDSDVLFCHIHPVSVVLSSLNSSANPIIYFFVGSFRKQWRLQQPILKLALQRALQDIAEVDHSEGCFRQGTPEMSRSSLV
Test: MRGPRX2 antagonist activity, IP-One HTRF assay in CHO cells expressing human MRGPRX2 versus Cortistatin-14
Type: cell-based
Protocol: CHO cells stably transfected to express human MRGPRX2 were maintained in an incubator at 37° C. with 5% CO2 and grown in F12 (HAM) media with 10% fetal bovine serum (FBS), 1% Glutamax, 1% penicillin/streptomycin, 800 μg/mL Geneticin (G418), and 300 μg/mL Hygromycin B. Cells were plated in a 384-well assay plate at 20,000 cells per well in 12 μL of Opti-MEM and kept in an incubator overnight. On the day of the assay, compounds solubilized at 10 mM in DMSO were added as a 10-point curve (30 uM final top concentration with 1:3 serial dilutions) using a Tecan D300E digital dispenser. Agonists were diluted in assay buffer (final concentrations of 5.7 mM Tris-HCl, 43 mM NaCl, 50 mM LiCI, pH=8) and 2 μL of the agonist Cortistatin-14 (CPC Scientific, catalog CORT-002) are added to each well. Final concentrations of agonists were […] Cortistatin-14. Final concentrations of DMSO were kept consistent across the plate. Plates were incubated in the dark for 1 hr at 37° C. and then for 1 hr at room temperature. IP-1 standards and HTRF detection reagents were added according to the IP-One—Gq Kit purchased from Cisbio (part number 621PAPEJ) and incubated in the dark for 1 hr at room temperature. The plate was read on a Molecular Devices SpectraMax iD5 plate reader. The HTRF ratio was calculated from the raw data and graphed using GraphPad Prism to calculate an IC50 value for each compound.
The activity ranges are denoted as follows: “+++++” denotes antagonist activity <100 nM; “++++” denotes antagonist activity between 100 and 500 nM; “+++” denotes activity between 501 and 1000 nM; “++” denotes activity between 1001 and 2500 nM; and “+” denotes activity >2500 nM.

[1] = CHO cells stably expressing human MRGPRX2, versus 0.3 uM Cortistatin-14 agonist, IP-1 HTRF readout, read-out: MRGPR2 Antagonist Activity

Row | IC50 [1] [nM] | SMILES | IC50 [nM]
1 | 501 to 1000 | COc1ccc(C(=O)N[C@H]2CC[C@@H](Nc3ccc(F)c(C(F)(F)F)c3)CC2)cc1 [2-2] | 
2 | 1000 to 2500 | CN(C)c1ccc(C(=O)N[C@H]2CC[C@@H](Nc3cc(N(C)C)nc(C(F)(F)F)c3)CC2)cc1 [2-1] | 
3 | > 2500 | COc1ccc(C(=O)N[C@H]2CC[C@@H](Nc3cc(C(F)(F)F)cc(C(F)(F)F)c3)CC2)cc1 [Example 14, N-((1S,4S)-4-((3,5-bis(trifluoromethyl)phenyl)amino)cyclohexyl)-4-methoxybenzamide] | 
4 | 501 to 1000 | CN1CCCc2cc(C(=O)N[C@H]3CC[C@@H](Nc4cc(C(F)(F)F)nc(C(F)(F)F)c4)CC3)ccc21 [4-21] | 
5 | 501 to 1000 | O=C(N[C@H]1CC[C@@H](Nc2cc(C(F)(F)F)nc(C(F)(F)F)c2)CC1)c1ccc(Cl)cc1Cl [4-32] | 
6 | 1000 to 2500 | CN1CCCc2c(C(=O)N[C@H]3CC[C@@H](Nc4cc(C(F)(F)F)nc(C(F)(F)F)c4)CC3)cccc21 [4-19] | 
7 | < 100 | N=C(N)Nc1ccc(C(=O)N[C@H]2CC[C@@H](Nc3cc(C(F)(F)F)nc(C(F)(F)F)c3)CC2)cc1 (single isomer, unassigned) [4-55] | 
8 | 501 to 1000 | CCn1nccc1C(=O)N[C@H]1CC[C@@H](Nc2cc(C(F)(F)F)nc(C(F)(F)F)c2)CC1 [4-12] | 
9 | 100 to 500 | O=C(N[C@H]1CC[C@@H](Nc2cc(C(F)(F)F)nc(C(F)(F)F)c2)CC1)c1ccc(N2CCS(=O)(=O)CC2)cc1 [4-38] | 
10 | 1000 to 2500 | COc1ccc(C(=O)N[C@H]2CC[C@@H](Nc3cc(C(F)(F)F)nc(N(C)C(C)C)n3)CC2)cc1 [3-1] | 
11 | 1000 to 2500 | CN1CCc2c(cccc2C(=O)N[C@H]2CC[C@@H](Nc3cc(C(F)(F)F)nc(C(F)(F)F)c3)CC2)C1 [4-34] | 
12 | 100 to 500 | COc1ccc(C(=O)N[C@H]2CC[C@@H](Nc3cc(C(F)F)nc(C(F)(F)F)c3)CC2)cc1 [4-43] | 
13 | 100 to 500 | CN(c1ccc(C(=O)N[C@H]2CC[C@@H](Nc3cc(C(F)(F)F)nc(C(F)(F)F)c3)CC2)cc1)S(C)(=O)=O [4-23] | 
14 |  | CN(c1ccc(C(=O)N[C@H]2CC[C@@H](Nc3ccc(C#N)c(C(F)(F)F)c3)CC2)cc1)S(C)(=O)=O [1-18] | 100 to 500
15 |  | N#Cc1ccc(N[C@H]2CC[C@@H](NC(=O)c3c[nH]c4ccccc34)CC2)cc1C(F)(F)F [1-19] | < 100
16 | 100 to 500 | Nc1nc(C(=O)N[C@H]2CC[C@@H](Nc3cc(C(F)(F)F)nc(C(F)(F)F)c3)CC2)cs1 [4-27] | 
17 | 501 to 1000 | O=C(N[C@H]1CC[C@@H](Nc2cc(C(F)(F)F)nc(C(F)(F)F)c2)CC1)c1ccccc1 [example 3, N-((1S,4S)-4-((2,6-bis(trifluoromethyl)pyridin-4-yl)amino)cyclohexyl)benzamide] | 
18 | 100 to 500 | CC(C#N)c1cccc(C(=O)N[C@H]2CC[C@@H](Nc3cc(C(F)(F)F)nc(C(F)(F)F)c3)CC2)c1 (some centres unmarked) [4-11] | 
19 | 501 to 1000 | CC(C)C(=O)Nc1cccc(C(=O)N[C@H]2CC[C@@H](Nc3cc(C(F)(F)F)nc(C(F)(F)F)c3)CC2)c1 [4-16] | 

Row | IC50 [1] [nM] | SMILES | IC50 [nM]
20 | 1000 to 2500 | O=C(N[C@H]1CC[C@@H](Nc2cc(C(F)(F)F)nc(C(F)(F)F)c2)CC1)c1nc2ccccc2[nH]1 [4-35] | 
21 | 100 to 500 | O=C(N[C@H]1CC[C@@H](Nc2cc(C(F)(F)F)nc(C(F)(F)F)c2)CC1)c1cccc2[nH]ccc12 [4-6] | 
22 | 501 to 1000 | O=C(N[C@H]1CC[C@@H](Nc2cc(C(F)(F)F)nc(C(F)(F)F)c2)CC1)c1ccc2c(c1)CCCC2 [4-42] | 
23 | > 2500 | N#Cc1ccc(C(=O)N[C@H]2CC[C@@H](Nc3cc(C(F)(F)F)nc(C(F)(F)F)c3)CC2)cc1 [4-13] | 
24 | 1000 to 2500 | CN(C)c1nc(N[C@H]2CC[C@@H](NC(=O)c3cccc(C#N)c3)CC2)cc(C(F)(F)F)n1 [4-18] | 
25 | 1000 to 2500 | COc1ccc(C(=O)N[C@H]2CC[C@@H](Nc3cc(Nc4cccc(C)c4)nc(C(F)(F)F)c3)CC2)cc1 [Example 9, 4-methoxy-N-[4-[[2-(3-methylanilino)-6-(trifluoromethyl)-4-pyridyl]amino]cyclohexyl]benzamide] | 
26 | 100 to 500 | O=C(N[C@H]1CC[C@@H](Nc2cc(C(F)(F)F)nc(C(F)(F)F)c2)CC1)n1cccc1 [4-2] | 
27 | 1000 to 2500 | COc1ccc(C(=O)N[C@@H]2CCC[C@H](Nc3nc(C(F)(F)F)nc4c3CCC4)C2)cc1 [1-6] | 
28 | 1000 to 2500 | N#Cc1cccc(C(=O)N[C@H]2CC[C@@H](Nc3cc(C(F)(F)F)nc(C(F)(F)F)c3)CC2)c1 [1-4] | 
29 | 100 to 500 | O=C(N[C@H]1CC[C@@H](Nc2cc(C(F)(F)F)nc(C(F)(F)F)c2)CC1)c1cccc2ncsc12 [4-9] | 
30 | 100 to 500 | O=C(N[C@H]1CC[C@@H](Nc2cc(C(F)(F)F)nc(C(F)(F)F)c2)CC1)c1cccc(O)c1 [4-28] | 
31 | 1000 to 2500 | O=C(N[C@H]1CC[C@@H](Nc2cc(C(F)(F)F)nc(Nc3ccccc3)n2)CC1)c1ccc(F)cc1 [Example 10, N-(1S,4S)-[4-[[2-anilino-6-(trifluoromethyl)pyrimidin-4-yl]amino}cyclohexyl]-4-fluoro-benzamide] | 
32 | 100 to 500 | CC(=O)Nc1cccc(C(=O)N[C@H]2CC[C@@H](Nc3cc(C(F)(F)F)nc(C(F)(F)F)c3)CC2)c1 [4-5] | 
33 | 1000 to 2500 | O=C(N[C@H]1CC[C@@H](Nc2nc(C(F)(F)F)nc3c2CCCC3)CC1)c1ccc(F)cc1 [1-11] | 
34 | 100 to 500 | CC1=NN(c2ccc(C(=O)N[C@H]3CC[C@@H](Nc4cc(C(F)(F)F)nc(C(F)(F)F)c4)CC3)cc2)C(=O)C1 [4-33] | 
35 | 1000 to 2500 | CN1CCCc2cccc(C(=O)N[C@H]3CC[C@@H](Nc4cc(C(F)(F)F)nc(C(F)(F)F)c4)CC3)c21 [4-26] | 
36 |  | N#Cc1ccc(N[C@H]2CC[C@@H](NC(=O)c3ccc4nccn4c3)CC2)cc1C(F)(F)F [1-20] | 100 to 500
37 | 1000 to 2500 | CN1CCCc2ccc(C(=O)N[C@H]3CC[C@@H](Nc4cc(C(F)(F)F)nc(C(F)(F)F)c4)CC3)cc21 [4-15] | 
38 | 1000 to 2500 | O=C(N[C@H]1CC[C@@H](Nc2cc(C3CC3)nc(C(F)(F)F)c2)CC1)c1ccc(F)cc1 [Example 8, N-(1S, 4S)-[4-[[2-cyclopropyl-6-(trifluoromethyl)-4-pyridyl]amino]cyclohexyl]-4-fluoro-benzamide] | 

Row | SMILES | IC50 [1] [nM] | IC50 [nM]
39 | N#Cc1ccc(N[C@H]2CC[C@@H](NC(=O)c3ccnc4cn[nH]c34)CC2)cc1C(F)(F)F [4-58] | < 100 | 
40 | N#Cc1ccc(N[C@H]2CC[C@@H](NC(=O)c3c[nH]c4ncccc34)CC2)cc1C(F)(F)F [4-57] | < 100 | 
41 | N#Cc1ccc(N[C@H]2CC[C@@H](NC(=O)c3cccc4[nH]ccc34)CC2)cc1C(F)(F)F [1-12] | < 100 | 
42 | CN(C)c1cccc(C(=O)N[C@H]2CC[C@@H](Nc3ccc(C#N)c(C(F)(F)F)c3)CC2)c1 [1-16] | 100 to 500 | 
43 | Cc1cc(C(=O)N[C@H]2CC[C@@H](Nc3cc(C)c(C#N)c(C(F)(F)F)c3)CC2)cc(C)n1 [5-1] | < 100 | 
44 | N#Cc1ccc(N[C@H]2CC[C@@H](NC(=O)c3ccnc4[nH]ncc34)CC2)cc1C(F)(F)F [4-59] | < 100 | 
45 | N#Cc1ccc(N[C@H]2CC[C@@H](NC(=O)c3ccc4[nH]ncc4c3)CC2)cc1C(F)(F)F [4-50] | < 100 | 
46 | CNc1cc(C(=O)N[C@H]2CC[C@@H](Nc3ccc(C#N)c(C(F)(F)F)c3)CC2)ccn1 [4-66] | < 100 | 
47 | Cc1cc(N[C@H]2CC[C@@H](NC(=O)c3cn(CC(F)F)nc3C)CC2)cc(C(F)(F)F)c1C#N [5-10] | < 100 | 
48 | N#Cc1ccc(N[C@H]2CC[C@@H](NC(=O)c3csc(N)n3)CC2)cc1C(F)(F)F [1-15] | 100 to 500 | 
49 | N#Cc1ccc(N[C@H]2CC[C@@H](NC(=O)c3ccc(NCC(F)F)cc3)CC2)cc1C(F)(F)F [4-53] | < 100 | 
50 | Cc1cn(-c2ccc(C(=O)N[C@H]3CC[C@@H](Nc4ccc(C#N)c(C(F)(F)F)c4)CC3)cc2)cn1 [4-51] | < 100 | 
51 | N#Cc1ccc(N[C@H]2CC[C@@H](NC(=O)c3ccc(F)cc3)CC2)cc1C(F)(F)F [1-22] | 100 to 500 | 
52 | N#Cc1ccc(N[C@H]2CC[C@@H](NC(=O)c3cn[nH]c3Cl)CC2)cc1C(F)(F)F [4-45] | < 100 | 
53 | N#Cc1ccc(N[C@H]2CC[C@@H](NC(=O)c3cccc4ncsc34)CC2)cc1C(F)(F)F [1-24] | 1000 to 2500 | 
54 | CNc1ccc(C(=O)N[C@H]2CC[C@@H](Nc3ccc(C#N)c(C(F)(F)F)c3)CC2)cc1 [4-47] | < 100 | 
55 | COc1ccc(C(=O)NC2CCC(Nc3ccc(C#N)c(C(F)(F)F)c3)CC2)cc1 (centres unmarked) [Example 4, N-[4-[4-cyano-3-(trifluoromethyl)anilino]cyclohexyl]-4-methoxy-benzamide] | 100 to 500 | 
56 | CNc1cc(C(=O)N[C@H]2CC[C@@H](Nc3cc(C)c(C#N)c(C(F)(F)F)c3)CC2)ccn1 [5-4] | < 100 | 
